Measurements taken from patent US9474744B2, “Beta-lactam compounds for treating diabetes” (STEM CELL MEDICINE LTD., priority 2011, dated 2016).

Assays:
CD4+ human T cells = assay: Human Autoimmune and Inflammatory Response Gene Array, anti-CD3-stimulated T cells with or without antibiotic; assay type: cell-based; details: 120 min anti-CD3; for % increase by Amp: ampicillin 50 μg/ml
Protocol: T cells were purified from the peripheral bloods of healthy human donors (Blood Bank, Sheba Medical center). The whole blood was incubated (20 min, 22° C.) with RosetteSep™ human T cell enrichment mixture (StemCell Technologies, Vancouver, Canada). The remaining unsedimented cells were then loaded onto lymphocyte separation medium (ICN Biomedicals, Irvine, Calif.), isolated by density centrifugation, and washed with PBS. […] In a second round of purification, CD3^+ T cells were labeled for selection with a magnetically coupled mAb against CD4 (Miltenyi Biotec, Auburn, Calif.).
Human CD4 T cells were isolated as described, and incubated in 24 well plates (Nunc), 4×10^6 cells/ml with plate bound anti-human CD3 (OKT3) at 2 μg/ml. The stimulation was performed in RPMI medium supplemented with 0.1% BSA. […] RNA was extracted from samples and used to prepare probes for gene array in accord with the manufacturer's instructions (SuperArray Bioscience, Frederick, Md.). Adequate labeling of the probes was tested before hybridization. Three healthy donors were tested in stimulation with cefuroxime. The membranes were analyzed online with the Image Data Acquisition and Expression Analysis (SuperArray Bioscience).
The Human Autoimmune and Inflammatory Response Gene Array (SuperArray Bioscience corporation, Frederick, Md., USA) was used for analysis of gene expression by the T cells. This array contains 367 genes including cytokines, chemokines and their receptors, transcription factors and signaling proteins. […] Analysis of the results was performed using the GEArray analysis program. […] To verify the results detected by the gene array study, a panel of six genes was designed and tested by real-time PCR: CCR4, ACVR2, JAK1, STAT4, TLR2 and NFKBIE. The cDNA that was used was prepared from the same RNA used for the gene array experiment.

[1] = test system: encephalitogenic BP10 line; assay: Adoptive EAE: BP10 T-cell line stimulated in vitro with test substance, then injected into naive rats; assay type: in vivo, rat; details: BP10 line stimulated 3 days with MBP in presence of 50 μg/ml antibiotic; 10^7 cells per rat
Protocol: Antigen-specific T-cell lines were established from lymph node cells that had been stimulated with myelin basic protein (MBP; 10 μg/ml) for 3 days in stimulation medium as described below. Following stimulation, the T-cell blasts were isolated on LYMPHOPREP™ (Nycomed Pharma, Oslo, Norway) and seeded in propagation medium. Propagation medium was identical to stimulation medium without autologous serum, but supplemented with fetal calf serum 10% and T-cell growth factors from the supernatant of Con A stimulated spleen cells 10% (Mor et al. (1990) J Clin Invest, 85, 1594-1598). Animals were injected intra-peritoneally with 107 MBP-stimulated T cells, following 6-8 cycles of in vitro stimulations. It is known that MBP-reactive lines undergo a reduction in pathogenicity after 6 or more in vitro stimulations. In some experiments the BP10 line was stimulated with phorbol myristate acetate (PMA; 50 ng/ml) and ionomycin (500 ng/ml) for 3 days in stimulation medium, without antigen-presenting cells.
Active EAE was induced by subcutaneous injection of 25 μg guinea-pig MBP (GpMBP) in complete Freund's adjuvant (CFA). […] Adoptive EAE was transferred by intra-peritoneal injection of guinea-pig MBP-activated cells of the BP10 line as described in Mor et al. (1993) J Clin Invest, 92, 2199-2206. […] Clinical scoring was: +1, paralysis of tail; +1.5, paresis of posterior paws and ataxia; +2, paraplegia; +3, paralysis extending to thoracic spine; +4, a moribund state.
Treatment with cefuroxime in vivo could affect many different host agents involved in EAE or AA as well as influencing the rats' bacterial flora. To test whether the antibiotic might directly modify the behavior of effector T cells, an encephalitogenic T-cell line was stimulated in the presence or absence of cefuroxime in vitro. The weakly encephalitogenic BP10 line was used, and was stimulated for 3 days with MBP in the presence or absence of cefuroxime (50 μg/ml). The activated T cells were then washed to remove the antibiotic, the T cells were injected intra-peritoneally into naïve recipient rats (10^7 per rat), and EAE was scored. The BP10 line at later stimulations was used, when its pathogenic potential is reduced, allowing to detect both suppression and enhancement of disease. […] To rule out antigen presenting cells (APC) as the target of the beta-lactam antibiotic, the encephalitogenic BP10 line was stimulated without APC using PMA (50 ng/ml) and Ionomycin (500 ng/ml) in the presence or absence of cefuroxime.
Additional beta-lactam antibiotics were tested for their effect on the adoptive transfer of EAE.
A control group was injected with the untreated line.

SMILES: CC1(C)S[C@@H]2[C@H](NC(=O)[C@H](N)c3ccccc3)C(=O)N2[C@H]1C(=O)O [ampicillin]
- number of the 57 cefuroxime-down-regulated genes that were up-regulated (CD4+ human T cells; 50 μg/ml): 56 genes
- % increase by Amp (CD4+ human T cells; gene ACTB): +196%
- % increase by Amp (CD4+ human T cells; gene ACVR1, A low expression): +53%
- % increase by Amp (CD4+ human T cells; gene ACVR2, A low expression): +85%
- % increase by Amp (CD4+ human T cells; gene CCL5): +25%
- % increase by Amp (CD4+ human T cells; gene CCL11): +107%
- % increase by Amp (CD4+ human T cells; gene CCR4): +31%
- % increase by Amp (CD4+ human T cells; gene CCR6): +83%
- % increase by Amp (CD4+ human T cells; gene CCR7): +43%
- % increase by Amp (CD4+ human T cells; gene CD28): +175%
- % increase by Amp (CD4+ human T cells; gene CD40LG): +67%
- % increase by Amp (CD4+ human T cells; gene CREBBP): +49%
- % increase by Amp (CD4+ human T cells; gene CXCL10): +25%
- % increase by Amp (CD4+ human T cells; gene EGR3): −25%
- % increase by Amp (CD4+ human T cells; gene GFI1): +10%
- % increase by Amp (CD4+ human T cells; gene HRAS, A low expression): −12%
- % increase by Amp (CD4+ human T cells; gene IL1B, A low expression): +64%
- % increase by Amp (CD4+ human T cells; gene IL2RB): +93%
- % increase by Amp (CD4+ human T cells; gene IL2RG, A low expression): +78%
- % increase by Amp (CD4+ human T cells; gene IL9R): No change
- % increase by Amp (CD4+ human T cells; gene IL16, A low expression): +14%
- % increase by Amp (CD4+ human T cells; gene IRAK1): +171%
- % increase by Amp (CD4+ human T cells; gene JAK1): +161%
- % increase by Amp (CD4+ human T cells; gene JUN): +65%
- % increase by Amp (CD4+ human T cells; gene LTA): +48.5%
- % increase by Amp (CD4+ human T cells; gene MAP2K4): +150%
- % increase by Amp (CD4+ human T cells; gene MAP3K1, A low expression): +63%
- % increase by Amp (CD4+ human T cells; gene MAP3K2): +93%
- % increase by Amp (CD4+ human T cells; gene MAP3K7): +124%
- % increase by Amp (CD4+ human T cells; gene MAPK9): +46%
- % increase by Amp (CD4+ human T cells; gene NFKB1): +31%
- % increase by Amp (CD4+ human T cells; gene NFKB2): +195%
- % increase by Amp (CD4+ human T cells; gene NFKBIE): +132%
- % increase by Amp (CD4+ human T cells; gene NFKBIL1): +191%
- % increase by Amp (CD4+ human T cells; gene PAK1): +111%
- % increase by Amp (CD4+ human T cells; gene PIN1): +105%
- % increase by Amp (CD4+ human T cells; gene RANBP5): +108%
- % increase by Amp (CD4+ human T cells; gene REL): +132%
- % increase by Amp (CD4+ human T cells; gene RFX5): +137%
- % increase by Amp (CD4+ human T cells; gene RFXAP): +131%
- % increase by Amp (CD4+ human T cells; gene SDF2): +71%
- % increase by Amp (CD4+ human T cells; gene SELL): +124%
- % increase by Amp (CD4+ human T cells; gene SMAD4): +85%
- % increase by Amp (CD4+ human T cells; gene SMAD7, A low expression): +34%
- % increase by Amp (CD4+ human T cells; gene SP3): +47%
- % increase by Amp (CD4+ human T cells; gene SRF): +58%
- % increase by Amp (CD4+ human T cells; gene STAT1): +85%
- % increase by Amp (CD4+ human T cells; gene STAT4): +11%
- % increase by Amp (CD4+ human T cells; gene STAT6): no change
- % increase by Amp (CD4+ human T cells; gene TGFBR3): +139%
- % increase by Amp (CD4+ human T cells; gene TGIF, A low expression): +72%
- % increase by Amp (CD4+ human T cells; gene TLR2, A low expression): +419%
- % increase by Amp (CD4+ human T cells; gene TNFRSF11, A low expression): +81%
- % increase by Amp (CD4+ human T cells; gene TNFα): +39%
- % increase by Amp (CD4+ human T cells; gene TRAF5, A low expression): +47%
- % increase by Amp (CD4+ human T cells; gene TRAF6, A low expression): +39%
- % increase by Amp (CD4+ human T cells; gene YY1): +152%
- severity of adoptive EAE in recipient rats [1]: did not increase the severity of EAE
